Earlier results in patent publication US20060127478A1, “Oral dosage formulation” (priority 2003, published 2006).
Like-named read-outs stand apart in the source and are kept apart here.

Experiments:
[1] = in vivo
[2] = Taha et al., NEJM 1996
gastric secretion = conditions: following oral administration

SMILES	incidence of adverse effects (abdominal pain, diarrhea, nausea, flatulence) [1]	nocturnal intra-gastric pH, mean value (nocturnal dose of 20 mg)	nocturnal intra-gastric pH, mean value (nocturnal dose of 40 mg)	basal daytime inter-digestive pH (three and eight hours following administration after breakfast of 20 or 40 mg)	frequency of gastric and duodenal ulcers associated with non-selective NSAIDs (diclofenac, ibuprofen, naproxen, ketoprofen) [2]	time at which basal, nocturnal, food and pentagastrin stimulated gastric secretion is inhibited (gastric secretion)	time to maximum effect on gastric secretion (gastric secretion; maximum effect dose dependent)
CCCCC(C)(O)C/C=C/[C@H]1[C@H](O)CC(=O)[C@@H]1CCCCCCC(=O)OC (mixture of isomers) [Misoprostol]	high incidence						
NC(N)=Nc1nc(CSCCC(N)=NS(N)(=O)=O)cs1 [Famotidine]		5.0	6.4	about 5	reduce the frequency	one	one to three
